In PMC6264731, “Chemo-Enzymatic Synthesis of Ester-Linked Docetaxel-Monosaccharide Conjugates as Water-Soluble Prodrugs” (Molecules, 2011):
In brackets after ≈: the same amount, converted by molar mass. Like-named read-outs stand apart in the source and are kept apart here.

Key:
[1] = Water-solubility, stirred in water 24 h at 25 °C, HPLC quantification; assay type: physicochemical
Description: The mixture was centrifuged at 100,000 g for 30 min at 25 °C. The concentration of test compounds was estimated on the basis of their peak areas using calibration curves prepared by HPLC analyses of authentic samples.

MCF-7 human cancer cells = test: MTT cytotoxicity assay in MCF-7 cells; assay type: cell-based; details: for IC50 MCF-7 cells: 24 h treatment
Description: (§1) The sensitivity of KB and MCF-7 cells to docetaxel or 4–6 was determined according to the previously reported method. Cells were diluted with culture medium to the seeding density (10^5 cells/mL), suspended in 96-well tissue culture plates (100 μL/well), preincubated at 37 °C for 4 h, and then treated for 24 h with docetaxel or 4–6 at various concentrations to obtain a dose–response curve for each compound. After incubation, 20 μL MTT solution (2.5 mg/mL) was added to each well and the plates were further incubated for 4 h. Absorbance at 570 nm was measured with a microplate reader model 450 (BIO-RAD). Dose-response curves were plotted on a semi-log scale as percentage of the cell numbers in control cultures not exposed to test compounds.

KB human cancer cells [2] = test: MTT cytotoxicity assay in KB cells; assay type: cell-based; details: 24 h treatment
Description: as §1

KB human cancer cells [3] = test: Hydrolysis of prodrugs by KB cells, release of docetaxel (HPLC); assay type: cell-based; details: 5 μmol compound, 20 mg KB cells in RPMI 1640, 37 °C, 24 h
Description: To a 5-mL vial containing RPMI 1640 medium (1 mL, Nissui Pharmaceutical Co. Ltd.) and KB cells (20 mg) was added 5 μmol of each compound. The mixture was incubated at 37 °C for 24 h. The cells and medium were separated by centrifugation at 10,000 g for 5 min. The cells were extracted with MeOH. MeOH extract was concentrated, and the residue was partitioned between H2O and CH2Cl2. The medium was extracted with CH2Cl2. The CH2Cl2 fractions were combined, concentrated, and analyzed by HPLC. The yield of docetaxel was calculated on the basis of the peak area from HPLC using a calibration curve provided by HPLC analyses of authentic docetaxel.

7-propionyldocetaxel 3''-O-β-D-galactopyranoside [Compound 5]
solubility at 24 h [1]: 25.5 µM | IC50 MCF-7 cells (MCF-7 human cancer cells): 28 µg/mL | IC50 KB cells (KB human cancer cells [2]): 41 µg/mL | Conversion to docetaxel (hydrolysis by KB cells) (KB human cancer cells [3]): 45%

7-propionyldocetaxel 3''-O-β-D-xylopyranoside [Compound 6]
solubility at 24 h [1]: 20.2 µM | IC50 MCF-7 cells (MCF-7 human cancer cells): 12 µg/mL | IC50 KB cells (KB human cancer cells [2]): 25 µg/mL | Conversion to docetaxel (hydrolysis by KB cells) (KB human cancer cells [3]): 76%

CC(=O)O[C@@]12CO[C@@H]1C[C@H](O)[C@@]1(C)C(=O)[C@H](O)C3=C(C)[C@@H](OC(=O)[C@H](O)[C@@H](NC(=O)OC(C)(C)C)c4ccccc4)C[C@@](O)([C@@H](OC(=O)c4ccccc4)[C@H]21)C3(C)C [Docetaxel]
Fold (water-solubility relative to docetaxel) ([1]; relative to docetaxel): 1 fold | solubility at 24 h ([1]; thermodynamic from solid): 0.5 µM (≈ 0.404 µg/mL) | IC50 (MCF-7 human cancer cells; Homo sapiens, MCF7, 24 h treatment): 5 µg/mL (≈ 6.19 µM) | IC50 (KB human cancer cells [2]; Homo sapiens): 12 µg/mL (≈ 14.9 µM)
